O=C1Cc2cc(F)ccc2N1
solubility (mole fraction)
Conditions | 278.15 K | 283.15 K | 288.15 K | 293.15 K | 298.15 K | 303.15 K | 308.15 K | 313.15 K | 318.15 K | 323.15 K
in DMF | 0.226 | 0.239 | 0.253 | 0.27 | 0.289 | 0.309 | 0.331 | 0.357 | 0.384 | 0.419
in THF | 0.0838 | 0.0938 | 0.104 | 0.115 | 0.129 | 0.144 | 0.162 | 0.183 | 0.209 | 0.237
in acetone | 0.0551 | 0.0618 | 0.0678 | 0.0764 | 0.085 | 0.096 | 0.108 | 0.123 | 0.14 | 0.16
in acetonitrile | 0.02 | 0.0227 | 0.0261 | 0.03 | 0.0344 | 0.0399 | 0.0463 | 0.0537 | 0.0632 | 0.0748
in ethyl acetate | 0.0149 | 0.0165 | 0.0185 | 0.0206 | 0.0234 | 0.0265 | 0.03 | 0.0343 | 0.0394 | 0.0459
in isopropanol | 0.0197 | 0.0225 | 0.0263 | 0.0309 | 0.0367 | 0.0436 | 0.0506 | 0.0601 | 0.0717 | 0.0857
in methanol | 0.0247 | 0.0296 | 0.0358 | 0.0422 | 0.0504 | 0.0594 | 0.0704 | 0.0841 | 0.0998 | 0.12
in n-hexane | 0.000387 | 0.000492 | 0.000623 | 0.000784 | 0.000984 | 0.00125 | 0.00153 | 0.00196 | 0.00247 | 0.00311
in n-propanol | 0.0293 | 0.0336 | 0.0388 | 0.0445 | 0.0513 | 0.0598 | 0.0688 | 0.0798 | 0.093 | 0.11
